Values after ≈ are worked out from the molar mass of the structure shown. “Also recorded” adds a separate entry of the source.
Key:
[1] = test system: HepG2 cells; assay: HepG2 cell viability (CellTiter-Glo); assay type: cell-based, Human; details: 72 hours
Protocol: HepG2 (ATCC HB-8065) cell viability was assessed using the CellTiter-Glo assay kit (Promega). HepG2 cells (N=4,500) were seeded in each well in 100 μL MEM+10% FBS in 96-well CellBIND (Corning) plates. After 24 hours, iKIX1 was added to final concentrations indicated for a final volume of 150 μL. HepG2 cells were incubated with iKIX1 for another 72 hours before CellTiter-Glo signal was assessed with an Envision 2103 Multilabel plate reader according to the manufacturer's instructions.

[2] = test system: Candida albicans SC5314; assay: Broth dilution MIC
Protocol: (§1) Antifungal susceptibility testing was carried out using broth dilution assays which examined effects of two-fold dilutions of compounds on cellular growth. The minimum inhibitory concentration (MIC) was defined as the drug concentration at which the optical density was equal to or decreased more than 50% from that of the drug-free culture.

[3] = test system: Candida albicans DSY2621; assay: Broth dilution MIC
Protocol: as §1

[4] = test system: C. glabrata PDR1 wild-type or PDR1^L280F strains; assay: Galleria mellonella survival assay; assay type: in vivo
[5] = test system: C. glabrata CgPDR1 wild-type and gain-of-function mutant strains; assay: Spot plating on gradient plates with azole; assay type: cell-based, Candida glabrata
[6] = test system: C. glabrata; assay: Mouse disseminated fungal burden model; assay type: in vivo; details: for fungal burden (CFU/g kidney): Cgpdr1 null strain (SFY93)
[7] = test system: rhodamine 6G efflux in C. glabrata; assay: Rhodamine 6G efflux assay; assay type: cell-based, Candida glabrata; details: PDR1 wild-type or gain-of-function strains, iKIX1 pre-treatment vs vehicle
Protocol: Cells were treated with vehicle or iKIX1 and grown with shaking for 16 hours. […] Untreated cells were placed on ice and not treated with ketoconazole or rhodamine 6G. All cells were placed on ice and washed twice with cold YP containing either 5 μM ketoconazole+vehicle (DMSO) or 5 μM ketoconazole+30 μM iKIX1 to remove excess rhodamine 6G. Cells were resuspended in room temperature YP with either 5 μM ketoconazole+vehicle (DMSO) or 5 μM ketoconazole+30 μM iKIX1 and 100 μL was transferred to a 96-well plate. An Envision 2103 Multilabel plate reader was used to assess RFU (relative fluorescence units; excitation 485, emission 535) over 60 minutes at 7.5 minute intervals. Efflux rate was calculated as RFU per second with 7.5 minute windows. Experiments were performed in triplicate, with duplicate readings for each sample; error bars indicate s.d.

[8] = test system: SREBP-target genes; assay: Transcription of SREBP-target genes in HepG2 cells; assay type: cell-based, Human; details: concentrations up to 100 μM, 24 hours
Protocol: For transcription assays, HepG2 cells were seeded in MEM+10% FBS on 12-well poly-D-lysine-coated plates at a concentration of 175,000 cells per mL. After cells attached (4 hours), media was aspirated and iKIX1 was added in fresh MEM+10% FBS to final concentrations indicated. Cells were treated with iKIX1 for 24 hours before RNA was isolated using Trizol according to manufacturer's instructions. Quantitative real-time RT-PCR was carried out as described above.

[9] = test system: Candida krusei DSY471; assay: Broth dilution MIC; details: Pichia kudriavzevii, ATCC6258
Protocol: as §1

[10] = test system: CgCDR1 transcription (CgPdr1 target); assay: Transcription assay, quantitative real-time PCR of CgPdr1 target genes; assay type: cell-based, Candida glabrata
[11] = test system: Candida glabrata DSY565; assay: Broth dilution MIC; details: Nakaseomyces glabratus
Protocol: as §1

[12] = test system: Candida glabrata DSY562; assay: Broth dilution MIC; details: Nakaseomyces glabratus
Protocol: as §1

[13] = test system: ScPdr1 target genes (ScPDR5, ScSNQ2); assay: Transcription assay, quantitative real-time PCR of ScPdr1 target genes; assay type: cell-based, Saccharomyces cerevisiae; details: ketoconazole induced
Protocol: ChIP was performed according to standard procedures (see. e.g., McConnell A D, Gelbart M E, Tsukiyama T. Histone fold protein Dls1p is required for Isw2-dependent chromatin remodeling in vivo. Mol Cell Biol. 2004; 24(7):2605-13. PMCID: 371119). Briefly, cells were grown to saturation then washed 2 times with sterilized Milli-Q (Millipore) water, resuspended to an OD600 of 0.8 in YP (1% yeast extract, 2% bacto peptone) and then grown for 6 hours at 30° C. with shaking in the presence of DMSO (vehicle) or iKIX1. Cultures were induced with ketoconazole to a final concentration of 40 μM and harvested at the times indicated. 2 mL of culture was harvested at 0′ and 15′ for matched transcription samples; RNA was prepared as described below. Cells were fixed with 1% formaldehyde (final) for 15 minutes with swirling and then quenched with 125 mM glycine (final) for 5 min. with swirling. Cells were pelleted, washed with TBS+125 mM glycine and then TBS. Cells were lysed in buffer containing 50 mM HEPES, pH 7.5, 140 mM NaCl, 1% Triton X-100, 0.1% sodium deoxycholate, 1 mM EDTA and protease inhibitors and 0.5 mm glass beads. […]
For harvest and preparation of RNA. cells equivalent to an OD600 of 0.4 were centrifuged at 4,000 rpm for 4 minutes and then resuspended in 700 μL Trizol. […] Quantitative real-time PCR reactions were run and analyzed on a Roche LightCycler 480 system. […]

N#CCC(=O)NNC(=S)Nc1ccc(Cl)c(Cl)c1 [iKIX1, 2-(2-Cyanoacetyl)-N-(3,4-dichlorophenyl)hydrazinecarbothioamide]
concentrations that inhibit viability of HepG2 cells [1]: > 50 µM
IC50 ([1]; Homo sapiens, HepG2, read-out: IC50, toxicity in HepG2 cells): ~100 µM
MIC [2]: 12.5 µM (≈ 3.79 µg/mL)
MIC [3]: 12.5 µM (≈ 3.79 µg/mL)
survival of G. mellonella larvae ([4]; […], fluconazole-iKIX1 combination): no significant alterations in survival
survival of G. mellonella larvae ([4]; […], single agent (fluconazole 50 mg/kg or iKIX1 25 mg/kg) vs vehicle): did not significantly increase survival
survival of G. mellonella larvae ([4]; in vivo): significantly increased survival
azole sensitivity of growth on gradient plates ([5]; CgPDR1 gain-of-function mutant strains, compound gradient with fluconazole or ketoconazole): restored azole-sensitivity to PDR1 gain-of-function mutant strains in a concentration-dependent manner
growth inhibition on gradient plates ([5]; CgPDR1 wild-type strains, iKIX1 with azole vs single agents): increased growth inhibition
reductions in fungal burdens in the kidney and spleen ([6]; CgPDR1^L280F strain, iKIX1 100 mg/kg with 100 mg/kg fluconazole, i.p. once daily, 7 days, P<0.0001): ~10 fold
fungal burden (CFU/g kidney) ([6]; iKIX1 alone, 100 mg/kg/day): significantly reduces fungal burden; also recorded: more sensitive to iKIX1 alone
fungal burden (CFU/g kidney) ([6]; low iKIX1 (10 mg/kg/day) added to fluconazole, 10 mg/kg/day): did not confer additional reductions in CFU/g kidney; also recorded: did not further reduce fungal burden
tissue fungal burden in the kidney and spleen ([6]; […], iKIX1 100 mg/kg co-treatment with 100 mg/kg fluconazole): did not result in further reductions
fungal tissue burdens in the spleen or kidney ([6]; […], iKIX1 combination with fluconazole): reduces fungal tissue burdens in the spleen or kidney
reductions in fungal burdens in both organs (kidney, spleen) ([6]; mouse, in vivo, 25 mg/kg): ~10 fold
maximum rhodamine 6G efflux rates [7]: Maximum efflux rates were significantly decreased
effect on transcription of SREBP-target genes [8]: no effect
MIC [9]: 6.25 µM (≈ 1.89 µg/mL)
ketoconazole-induced CgPdr1 target gene (CgCDR1) transcription (in words) ([10]; CgPDR1 wild-type strain (SFY114), pre-treatment then 40 μM ketoconazole): reduced target gene induction in a durable and concentration-dependent manner
Pdr1-target gene induction ([10]; iKIX1 alone, no azole): did not significantly affect Pdr1-target gene induction
azole-induced transcription of CgPdr1 target genes ([10]; isogenic strains with gain-of-function CgPDR1 mutations): reduced azole-induced transcription of CgPdr1 target genes (e.g., CgCDR1) in a concentration-dependent manner in all strains tested
MIC [11]: 12.5 µM (≈ 3.79 µg/mL)
MIC [12]: 12.5 µM (≈ 3.79 µg/mL)
azole-induced transcription of ScPdr1 target genes [13]: strongly inhibited azole-induced transcription of ScPdr1 target genes

From patent publication US11136291B2, “Antifungal compounds and uses thereof” (Dana-Farber Cancer Institute, Inc., priority 2016, dated 2021)
